In the METLIN SMRT retention time set (Domingo-Almenara et al. 2019) one finds RP-LC retention time data, which are given here for 61 compounds.

This data set can be described thus: gradient 5% acetonitrile 3 min, to 50% in 2 min, to 85% in 15 min, held 3 min, 100 µL/min. Conditions: column: Zorbax Extend-C18 2.1 x 50 mm; eluents: water / acetonitrile, 0.1% formic acid. The procedure, abridged: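 Data were gathered over 3 months by HPLC coupled to a quadrupole time-of-flight mass spectrometer, operated in positive and negative ionization mode. Mixtures of ~100 pure standards ran on a Zorbax Extend-C18 column (2.1 × 50 mm, 1.8 μm) at 100 μL/min, with water and acetonitrile each containing 0.1% formic acid and dead and dwell volumes of 40 μL and 900 μL. Retention time was read from adduct peaks picked by computer and checked manually.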
In turn, `Cc1ccc2[nH]cc(CCN3CC(C(=O)Nc4ccc(F)c(Cl)c4)CC3=O)c2c1` (stereo unspecified) yielded an RP-LC retention time of 899 s.
The value for `CN(C)c1ncncc1N1CCC(C(=O)NCc2ccco2)CC1` was 588 s.
Consider `CCOCCOC1CCN(C(=O)c2cccs2)CC1`, for which the RP-LC retention time was 725 s.
The value for `COCCNC(=O)C1CCN(c2nc3ccc(-c4ccccc4F)nc3s2)CC1` was 827 s; that for `CC(=O)Nc1ccc(NC(=O)COc2cc(C)nc(-c3ccc(C(F)(F)F)cc3)n2)cc1` was 887 s.
With `CC1Oc2ccc(S(=O)(=O)N3CCC(C(=O)NCc4ccc5c(c4)OCO5)CC3)cc2NC1=O` (stereo unspecified) the figure was 755 s; with `CCOc1ccc(NC(=O)Cn2c(-c3cnccn3)nc(C)c(C)c2=O)cc1`, 735 s; with `Cc1nnc(NC(=O)c2cc(C3CC3)n(C3CCS(=O)(=O)C3)n2)s1` (stereo unspecified), 646 s.
The value for `CN(C)C(=O)CCc1ccc2c(c1)CN(C(=O)C1COc3ccccc3O1)CCO2` (stereo unspecified) was 790 s; that for `Cc1nn2c(S(=O)(=O)N3CCC(C)CC3)c(C)nc2s1` was 838 s.
As to `O=C(Nc1ccc(Cl)cc1F)N1CCc2nc[nH]c2C1`, the RP-LC retention time stood at 584 s.
The value for `CCOc1ccc(C(=O)N2CCC3(CC2)C(=O)N(CC)c2ccccc23)cc1OCC` was 939 s; that for `O=C(NCCCN1CCOCC1)c1c2c(nc3ccccc13)C(=O)N(C1CCCCC1)C2` was 598 s; that for `CCC(=O)c1ccc(OCC(O)CN(CC)Cc2ccccc2)cc1` (stereo unspecified) was 566 s.
In turn, `CCc1noc(NC(C)=O)c1-c1ccc(OC)c(S(=O)(=O)Nc2ccc(F)cc2C)c1` gave an RP-LC retention time of 796 s.
For `COc1ccc(NC(=O)N(C)CC2CCOCC2)c(C)c1`, the RP-LC retention time amounted to 670 s.
With `COc1ccc(-c2nnc(COc3ccc(NC(=O)c4cccnc4Cl)cc3)o2)cc1` the figure was 820 s.
The value for `COC(=O)c1cc(OCC(=O)Nc2ccccc2)c2cc(OC)c(OC)cc2n1` was 711 s; that for `CCCc1noc(-c2ccc(-n3ncc(C(=O)N4CCCC(C)C4)c3C)nc2)n1` (stereo unspecified) was 1130 s; that for `Cc1ccc(-c2noc(-c3ccccc3S(=O)(=O)N3CCCCC3C)n2)cc1` (stereo unspecified) was 1250 s.
Regarding `O=C(c1cc(C2CC2)[nH]n1)N1CCCCC1`, the RP-LC retention time came to 661 s.
Turning to `CCCN1C(=O)C(CC(=O)NCC2CC2)Sc2ncccc21` (stereo unspecified), the RP-LC retention time stood at 697 s.
The compound `O=C(c1cc2ccccc2[nH]1)N1CCN2CCS(=O)(=O)N(C3CC3)C(=O)C2C1` (stereo unspecified) returned an RP-LC retention time of 780 s.
The value for `CC(Sc1nnnn1-c1ccccc1)C(=O)Nc1ccc(N2CCN(C)CC2)cc1` (stereo unspecified) was 580 s; that for `Cc1cc2c(c(=O)n(-c3ccccc3)c(=O)n2CC(=O)Nc2ccc(F)c(Cl)c2)n1C` was 902 s; that for `COc1ccc(C2C(C(=O)N3CCC(C)CC3)c3cc(OC)c(OC)cc3C(=O)N2C)cc1OC` (stereo unspecified) was 764 s.
The value for `COc1cc(C(O)CCBr)c(OC)cc1C` (stereo unspecified) was 1020 s; that for `Cc1ccc(C)c(NC(=O)N(C)CC2CCOC2)c1` (stereo unspecified) was 705 s; that for `O=C(c1cn2ccnc(-c3ccc(F)cc3)c2n1)N1CCN(c2ncccn2)CC1` was 756 s.
With `O=C(c1cc(=O)[nH]c2ccccc12)N1CCCC1` the figure was 598 s; with `O=C(c1ccsc1)N1CCC(Nc2ncnc3c2CCC3)CC1`, 581 s.
The compound `Cc1cccc(C(C)C)c1NC(=O)C1CCN(S(C)(=O)=O)c2ccccc2O1` (stereo unspecified) yielded an RP-LC retention time of 957 s.
With `Cc1ccc(S(=O)(=O)N(C)CC2CCOCC2)cc1C` the figure was 886 s; with `CCc1ccc(NC(=O)C2CCN(S(=O)(=O)c3cn(CC)cn3)CC2)cc1`, 794 s; with `CCOC(=O)c1noc2nc(C)nc(Nc3ccc(C)cc3)c12`, 936 s.
The value for `NC(=O)[C@@H]1C[C@H](Oc2ccccc2)CN1C1CCC1` was 571 s.
With `COc1cccc(OC)c1OCC(O)CN1CCN(c2cc(Cl)ccc2C)CC1` (stereo unspecified) the figure was 615 s.
Compound `O=C(COc1ccccc1Cl)N1CCN(c2cc(-c3ccccc3)ncn2)CC1` came in with an RP-LC retention time of 628 s.
With `Cc1ccc(N2N=NC3C(=O)N(c4ccccc4)C(=O)C32)cc1F` (stereo unspecified) the figure was 1010 s; with `CCn1cc(S(=O)(=O)Nc2ccc3nc(S(=O)(=O)CC)sc3c2)cn1`, 693 s; with `CC(C)CCNC(=O)Cn1nc(S(=O)(=O)c2cccc(F)c2)ccc1=O`, 757 s.
With `Cc1cc(C(=O)NCC(C)C)c2cc(F)ccc2n1` the figure was 698 s; with `CCn1cnc2cc(CNC(=O)c3ccc(C(F)(F)F)cc3)ccc21`, 651 s; with `COc1cccc(S(=O)(=O)N2CCC3(CC2)C(OC)CN3c2cccc(F)c2)c1` (stereo unspecified), 1160 s.
With `CSc1cccc(NC(=O)Nc2c(-c3ccncc3)nc3ccccn23)c1` the figure was 623 s; with `COc1ccc(Cl)cc1S(=O)(=O)NC1CCCN(c2ccc(=O)[nH]n2)C1` (stereo unspecified), 698 s; with `CC1=NS(=O)(=O)N(Cc2ccccc2)C=C1C(=O)OCc1cccc(C)c1`, 1140 s.
Consider `CCOc1cc(=O)n2c(c1C(=O)Nc1ccc(SC)cc1)CCCC2`, for which the RP-LC retention time came out at 754 s.
The compound `COc1cccc(NC(=O)Cn2cnc3nc(N4CCC(C(=O)NC5CC5)CC4)sc3c2=O)c1` registered an RP-LC retention time of 658 s.
Compound `Cc1cc(C)cc(C(=O)N2CCCC(C(=O)NCCN3CCCC3)C2)c1` (stereo unspecified) returned an RP-LC retention time of 606 s.
With `Cc1oc(-c2ccc(NC(=O)c3ccc4c(c3)OCO4)cc2)nc1Cn1cccn1` the figure was 822 s; with `CC(=O)c1ccc(S(=O)(=O)NCCC2CCN(C(=O)c3ccccc3)CC2)cc1`, 773 s.
With `Cc1nc(C(C)C)nc2c1CCC(=O)N2Cc1cccnc1` the figure was 519 s.
On to `Cc1csc(-c2cc(S(=O)(=O)NC3CCCC3)cn2CC(=O)N2CCCCC2)n1`, for which the RP-LC retention time was 934 s.
With `CCSc1nnc(NC(=O)C2(c3cc(-c4cccs4)on3)CC2)s1` the figure was 1020 s; with `Cc1nn(-c2nc(-c3ccc(F)cc3)cs2)c(C)c1CC(=O)Nc1ccccc1F`, 1140 s; with `CNc1nnc(-c2nnc(C)o2)c2ccccc12`, 567 s.
With `CCCNC(=O)C1CCN(c2ccc(SCC(=O)Nc3ccc(C)c(C)c3)nn2)CC1` the figure was 685 s; with `Brc1ccc(-c2ccc(CNCc3ccccn3)o2)cc1`, 703 s.
The value for `COCCNC(=O)Nc1nc(CSCc2cc(OC)cc(OC)c2)cs1` was 734 s.
`CCOc1ccc(S(=O)(=O)N2CCC(C(=O)NCc3csc(-c4ccccc4)n3)CC2)cc1`: the RP-LC retention time amounted to 978 s.
